From ChEMBL document CHEMBL5244235, “Diarylpentanoids with antitumor activity: A critical review of structure-activity relationship studies” (Eur J Med Chem, 2020) come the findings set out here.

Data set [1] can be described thus: Antiproliferative activity against human KATO III stomach cancer cell line assessed as cell growth inhibition by MTT assay. It counts as functional, cell-based.
In data set [2] the test system is GCIY. Kind of data set: Antiproliferative activity against human GCIY cells assessed as cell growth inhibition by MTT assay. It counts as functional, cell-based. A general note: Tetrazolium dyes change colour on reduction, which living cells bring about.
For data set [3], the system named is LS174T. Kind of data set: Antiproliferative activity against human LS174T cells assessed as cell growth inhibition by MTT assay. It counts as functional, cell-based.
The nature of data set [4]: Antiproliferative activity against human SH-10-TC cells assessed as cell growth inhibition by MTT assay. The data set is classed as functional, cell-based.
The nature of data set [5]: Antiproliferative activity against human H-111-TC cells assessed as cell growth inhibition by MTT assay. The data set is classed as functional, cell-based.
In data set [6] the test system is HeLa. Nature of the data set: Antiproliferative activity against human HeLa cells assessed as cell growth inhibition measured after 72 hrs by MTT assay. The data set is classed as functional, cell-based. As to conditions: Homo sapiens, HeLa, 72 h.
The test system of data set [7] is Ca-Ski. Kind of data set: Antiproliferative activity against human Ca-Ski cells assessed as cell growth inhibition measured after 72 hrs by MTT assay. It counts as functional, cell-based.
The test system of data set [8] is HUVEC. Nature of the data set: Anti-angiogenesis activity in HUVEC cells. As to conditions: Homo sapiens. The data set is classed as functional, cell-based.
Data set [9] deals with RPMI-7951. Kind of data set: Antiproliferative activity against human RPMI-7951 cells assessed as cell growth inhibition measured after 72 hrs by neutral red assay. The data set is classed as functional.
For data set [10], the system named is MDA-MB-231. Nature of the data set: Antiproliferative activity against human MDA-MB-231 cells assessed as cell growth inhibition measured after 72 hrs by neutral red assay. It counts as functional.
Data set [11] deals with NSCLC. Kind of data set: Antiproliferative activity against human NSCLC cells assessed as cell growth inhibition measured after 72 hrs by neutral red assay. The data set is classed as functional.
For data set [12], the system named is Panel CNS (Carcinoma cell lines). Nature of the data set: Antiproliferative activity against human Panel CNS (Carcinoma cell lines) assessed as cell growth inhibition measured after 72 hrs by neutral red assay. The data set is classed as functional.
Data set [13] deals with Panel leukemia (Carcinoma cell lines). Kind of data set: Antiproliferative activity against human Panel leukemia (Carcinoma cell lines) assessed as cell growth inhibition measured after 72 hrs by neutral red assay. The data set is classed as functional.
The subject of data set [14] is Panel colon (Carcinoma cell lines). Nature of the data set: Antiproliferative activity against human Panel colon (Carcinoma cell lines) assessed as cell growth inhibition measured after 72 hrs by neutral red assay. It counts as functional.
For data set [15], the system named is Panel melanoma (Carcinoma cell lines). Nature of the data set: Antiproliferative activity against human Panel melanoma (Carcinoma cell lines) assessed as cell growth inhibition measured after 72 hrs by neutral red assay. It counts as functional.
Data set [16] deals with Panel ovarian (Carcinoma cell lines). Kind of data set: Antiproliferative activity against human Panel ovarian (Carcinoma cell lines) assessed as cell growth inhibition measured after 72 hrs by neutral red assay. The data set is classed as functional.
Data set [17] relates to Panel renal (Carcinoma cell lines). Kind of data set: Antiproliferative activity against human Panel renal (Carcinoma cell lines) assessed as cell growth inhibition measured after 72 hrs by neutral red assay. It counts as functional.
Data set [18] has as its system Panel prostate (Carcinoma cell lines). Kind of data set: Antiproliferative activity against human Panel prostate (Carcinoma cell lines) assessed as cell growth inhibition measured after 72 hrs by neutral red assay. The data set is classed as functional.
For data set [19], the system named is Panel breast (Carcinoma cell lines). Kind of data set: Antiproliferative activity against human Panel breast (Carcinoma cell lines) assessed as cell growth inhibition measured after 72 hrs by neutral red assay. It counts as functional.
Data set [20] has as its system SVR. Kind of data set: Anti-angiogenesis activity in mouse SVR cells assessed as cell growth inhibition. The data set is classed as functional, cell-based.
Data set [21] in a line: Anti-angiogenesis activity in […] MS-1 cells assessed as cell growth inhibition. The data set is classed as functional, cell-based.
The test system of data set [22] is HUVEC. Nature of the data set: Anti-angiogenesis activity in HUVEC cells assessed as cell growth inhibition. The data set is classed as functional, cell-based. As to conditions: Homo sapiens.
Data set [23] can be described thus: Antiproliferative activity against human Panel NCI-58 (58 carcinoma cell lines) assessed as cell growth inhibition. The data set is classed as functional.
Data set [24] is described as follows: Cytotoxicity activity against mouse SVR cells assessed as cell growth inhibition at 6 ug/ml relative to control. The data set is classed as toxicity, cell-based. The conditions noted are these: at 6 µg/mL.
A short description of data set [25]: Cytotoxicity activity against mouse SVR cells assessed as cell growth inhibition at 3 ug/ml relative to control. It counts as toxicity, cell-based. As to conditions: at 3 µg/mL.
Data set [26] concerns HCT-116. Kind of data set: Antiproliferative activity against human HCT-116 cells assessed as cell viability measured after 24 hrs by XTT assay. The data set is classed as functional, cell-based. The conditions noted are these: HCT-116, 24 h.
The subject of data set [27] is HT-29. Kind of data set: Antiproliferative activity against human HT-29 cells assessed as cell viability measured after 24 hrs by XTT assay. The data set is classed as functional, cell-based. The conditions noted are these: HT-29, 24 h.
In data set [28] the test system is B16. Kind of data set: Antiproliferative activity against mouse B16 cells assessed as cell growth inhibition. It counts as functional, cell-based.
The subject of data set [29] is L1210. Kind of data set: Antiproliferative activity against mouse L1210 cells assessed as inhibition of cell growth. The data set is classed as functional, cell-based.
Data set [30] deals with Jurkat E6.1. Nature of the data set: Antiproliferative activity against human Jurkat E6.1 cells assessed as cell viability by WST-1 assay. It counts as functional, cell-based.
Data set [31] relates to U-937. Kind of data set: Antiproliferative activity against human U-937 cells assessed as cell viability by WST-1 assay. The data set is classed as functional, cell-based.
Data set [32] relates to SAOS-2. Nature of the data set: Antiproliferative activity against human SAOS-2 cells assessed as cell viability by WST-1 assay. It counts as functional, cell-based.
Data set [33] deals with HCT-116. Nature of the data set: Antiproliferative activity against human HCT-116 cells assessed as cell viability by WST-1 assay. The data set is classed as functional, cell-based.
The test system of data set [34] is A549. Kind of data set: Antiproliferative activity against human A549 cells assessed as cell growth inhibition measured after 48 hrs by MTT assay. It counts as functional, cell-based. The conditions noted are these: A549, 48 h.
In data set [35] the test system is NCI-H460. Kind of data set: Antiproliferative activity against human NCI-H460 cells assessed as cell growth inhibition measured after 48 hrs by MTT assay. The conditions noted are these: NCI-H460, 48 h. It counts as functional, cell-based.
Data set [36] deals with MDA-MB-231. Kind of data set: Growth inhibition of human MDA-MB-231 cells measured after 72 hrs by microplate reader analysis. The data set is classed as functional.
Data set [37] concerns RPMI-7951. Kind of data set: Growth inhibition of human RPMI-7951 cells measured after 72 hrs by microplate reader analysis. As to conditions: RPMI-7951, time 72 hrs. It counts as functional, cell-based.
Data set [38] in a line: Cytotoxicity against HUVEC cells assessed as cell growth inhibition by anti-angiogenisis screening assay. The data set is classed as toxicity, cell-based. As to conditions: human.
A short description of data set [39]: Cytotoxicity against mouse MS-1 cells assessed as cell growth inhibition by anti-angiogenisis screening assay. The data set is classed as toxicity, cell-based.
The nature of data set [40]: Cytotoxicity against mouse SVR cells assessed as cell growth inhibition by anti-angiogenisis screening assay. The data set is classed as toxicity, cell-based.
Data set [41] relates to A549. Nature of the data set: Anticancer activity against human A549 cells assessed as cell growth inhibition. The data set is classed as functional.
The test system of data set [42] is NCI-H460. Nature of the data set: Anticancer activity against human NCI-H460 cells assessed as cell growth inhibition. The data set is classed as functional.

In the case of `COc1cc(/C=C/C(=O)/C=C/c2ccc(O)c(OC)c2)ccc1O`, the 50% inhibitory concentration (IC50) (as a rule, the concentration at which inhibition is half-maximal) in data set [1] is 5980 nM; in data set [2], 7320 nM; in data set [3], 3700 nM; in data set [4], 3280 nM; in data set [5] it was 3670 nM; in data set [8], 400 nM. Further, the EC50 in data set [6] and in data set [7] was 1030 nM throughout.

For `O=C1/C(=C/c2ccccc2O)CCC/C1=C\c1ccccc1O`, the concentration for 50% growth inhibition (GI50) in [9], in data set [10], in data set [11], in [12], in data set [13] and in data set [14] was 1600 nM each time. In addition, the GI50 (as a rule, the concentration at which growth is held to half of that of the control) was 1600 nM in data set [15]; 1600 nM in [16]; 1600 nM in data set [17]; 1600 nM in data set [18]; 1600 nM in data set [19]; 2000 nM in data set [20]. Moreover, the GI50 in data set [21] and in [22] was 2000 nM throughout.

`CCOc1cc(/C=C2\CN(C)C/C(=C\c3ccc(O)c(OCC)c3)C2=O)ccc1O`: the GI50 in data set [23] worked out at 1400 nM.

With `O=C1/C(=C/c2ccccn2)CCC/C1=C\c1ccccn1`, the inhibition (in general, the drop in the measured response relative to a control, in per cent) at 6 ug/ml in data set [24] is 96%. For the same compound, the inhibition at 3 ug/ml in [25] was 90.1%.

Regarding `CN1C/C(=C\c2ccccn2)C(=O)/C(=C/c2ccccn2)C1`, the IC50 in data set [26] and in [27] was 620 nM throughout.

Regarding `O=C1/C(=C/c2cccc(O)c2)CNC/C1=C\c1cccc(O)c1`, the figures for the half-maximal inhibitory concentration (IC50) in data set [28] and in [29] were 200 nM and 300 nM, respectively.

Take `O=C1/C(=C/c2ccc(O)c(O)c2)COC/C1=C\c1ccc(O)c(O)c1`: the 50% inhibitory concentration (IC50) in [30], in data set [31], in data set [32] and in data set [33] was 1450 nM each time.

In the case of `O=C1/C(=C/c2ccccc2F)CCC/C1=C\c1ccccc1F`, the IC50 in data set [34] came out at 30500 nM; in data set [35] it was 28700 nM.

For `O=C(/C=C/c1ccccc1F)/C=C/c1ccccc1F`, the GI50 is 1000 nM in data set [36]; 2300 nM in data set [37]; 6100 nM in [38]; 6100 nM in [39]; 6100 nM in data set [40]; 17000 nM in data set [41]. The 50% growth inhibitory concentration (GI50) in data set [42] came out at 11300 nM.
